US20250197424A1, “QUINOLINE COMPOUND AND USE THEREOF” (SHANGHAI PHARMACEUTICALS HOLDING CO., LTD., priority 2022, published 2025)
Counter-ions that a name gives are not always drawn.

Tests used:
GTP-KRAS-G12D:CRAF = GTP-KRAS-G12D:CRAF (Homo sapiens (Human), UniProt P01116, G12D); assay: GTP-KRAS-G12D:CRAF binding inhibition
Experimental: The IC50 of the compounds was fitted using a nonlinear regression equation with GraphPad Prism 8. The results are presented in Table 2: • Negative control: DMSO • Positive control: 100 μM BI-2852 The following nonlinear fitting formula was used to obtain the IC50 (half-maximal inhibitory concentration) of the compounds: [formula] • X: logarithm of the compound concentration • Y: 665/615 Ratio

GTP-KRAS-WT:SOS1 = GTP-KRAS-WT:SOS1 (Homo sapiens (Human), UniProt P01116); assay: KRAS_WT and SOS1 binding inhibition (KRAS-WT/SOS1 binding kit, 665/615 ratio); conditions: GTP 10 μM
Text: To detect the inhibitory capability of small molecule compounds on the binding activity between KRAS_WT and SOS1 using a drug screening system based on the binding of KRAS_WT and SOS1 interaction.
a) BI-2852 was used as a positive control, with its stock solution as the first dilution point, followed by a 3-fold dilution, making a total of 10+0 dilutions. Similarly, the first dilution point of the test compounds was also their respective stock solutions, followed by a 3-fold dilution, making a total of 11+0 dilutions. Using Echo, 0.2 μL of the gradient-diluted compound solutions were transferred into a 384-well plate, with each compound tested in duplicate. The final DMSO concentration was 1%. The plate was centrifuged at 1000 rpm for 1 minute. The final concentrations of the positive controls were 100, 33.33, 11.11, 3.70, 1.23, 0.412, 0.137, 0.046, 0.015, 0.005, and 0 μM. The final concentrations of the test compounds were […], 0.01, and 0 μM.
b) KRAS_WT from the kit was prepared with GTP at a final concentration of 10 μM in the dilution buffer, and 5 μL was transferred into the 384-well reaction plate. The plate was centrifuged at 1000 rpm for 1 minute.
c) Subsequently, 5 μL of the SOS1 mixture was transferred into the 384-well reaction plate. The plate was centrifuged at 1000 rpm for 1 minute and incubated at 25° C. for 15 minutes.
d) 10 μL of the detection mixture was transferred into the 384-well reaction plate. The plate was centrifuged at 1000 rpm for 1 minute and incubated overnight at 4° C.
e) The […] and emission wavelength at 615 nm were read using an Envision multimode plate reader. The 665/615 ratio signal intensity was used to characterize the enzyme activity.
(§1) The IC50 of the compounds was fitted using a nonlinear regression equation with GraphPad Prism 8. The results are presented in Table 2: • Negative control: DMSO • Positive control: 100 μM BI-2852
(§2) The following nonlinear fitting formula was used to obtain the IC50 (half-maximal inhibitory concentration) of the compounds:
(§3) [formula] • X: logarithm of the compound concentration • Y: 665/615 Ratio

GTP-KRAS-G12D:SOS1 = GTP-KRAS-G12D:SOS1 (Homo sapiens (Human), UniProt P01116, G12D); assay: GTP-KRAS-G12D:SOS1 binding inhibition
Experimental: as §1, §2, §3

[1] = tested on: Panc-1 (KRASG12D pancreatic cancer cell) CDX model; format: in vivo, Nu/Nu nude mice
Experimental: Female Nu/Nu nude mice, approximately 8 to 10 weeks old, (Beijing Vital River Laboratory Animal Technology Co., Ltd) were used in these studies. The animals were maintained in individually ventilated cages with a 12-hour light/dark cycle. Food and water were available ad libitum. Panc-1 tumor cells were maintained in vitro at 37° C. in an atmosphere containing 5% CO2 using DMED medium supplemented with 10% fetal bovine serum. Prior to tumor inoculation, cells in the exponential growth phase were harvested and quantified using a cell counter. Panc-1 tumor cells (1×10^7) in 0.2 mL PBS were subcutaneously inoculated into the right flank of each mouse. Randomization was initiated when the average tumor size reached approximately 154.21 mm^3. A total of 9 tumor-bearing mice were enrolled in the study, and these mice were allocated into […] (3 mice per group). Additionally, 3 non-tumor-bearing mice were assigned to the untreated group.
The animals were treated […] via intravenous injection (I.V.) with either a vehicle (10% HP-β-CD) or the vehicle containing the indicated dose of the compound, for approximately 28 days (QD×28 I.V.), or until ethical endpoints were reached (BWL>20%; median tumor volume (MTV)>2000 mm^3; individual TV>3000 mm^3; clinical signs of discomfort). […]
Tumor volume was measured in two dimensions using calipers twice weekly after randomization, and the volume was calculated in mm^3 using the formula: V=(L×W×W)×0.5, where V is the tumor volume, L is the tumor length (the longest tumor dimension), and W is the tumor width (the longest tumor dimension perpendicular to L). […] Tumor growth inhibition (TGI %) was calculated using the formula: TGI %=[1−(Ti/Ci)]×100, where Ti is the median tumor volume in the treatment group on the measurement day, and Ci is the median tumor volume in the control group on the measurement day.

Compound	IC50 (GTP-KRAS-G12D:CRAF)	IC50 (GTP-KRAS-WT:SOS1)	IC50 (GTP-KRAS-G12D:SOS1)	TGI (%) Day 28 ([1]; Panc-1 KRASG12D in Nu/Nu, 10 mg/kg QD IV, Day 28)	BWL (%) Day 14 ([1]; mouse, in vivo, iv, 10 mg/kg)	BWL (%) Day 28 ([1]; mouse, in vivo, iv, 10 mg/kg)
Oc1cc(Cl)c2c(c1)C1(CC2)CCc2c(nc(OC[C@@]34CCCN3C[C@H](F)C4)nc2N2CC3CCC(C2)N3)C1 (single isomer, unassigned) [Compound 2a, (S or R)-4′-((1R,5S)-3,8-Diazabicyclo[3.2.1]octan-3-yl)-4-chloro-2′-((2R,7aS)-2-fluorotetrahydro-1H-pyrrolizin-7a(5H)-ylmethoxy)-2,3,5′,8′-tetrahydro-6′H-spiro[indene-1,7′-quinazolin]-6-ol dihydrochloride]	32.5 nM	254 nM	16.7 nM			
F[C@H]1CN2CCC[C@@]2(COc2nc3c(c(N4CC5CCC(C4)N5)n2)CCC2(CCc4c(Cl)cccc42)C3)C1 (single isomer, unassigned) [Compound 1a, (S or R)-4′-((1R,5S)-3,8-Diazabicyclo[3.2.1]octan-3-yl)-4-chloro-2′-((2R,7aS)-2-fluorotetrahydro-1H-pyrrolizin-7a(5H)-ylmethoxy)-2,3,5′,8′-tetrahydro-6′H-spiro[indene-1,7′-quinazoline]dihydrochloride]	333 nM	4100 nM	45.6 nM			
(R or S)-4-((5aS,6R,9S)-1,3-difluoro-13-((2R,7aS)-2-fluorotetrahydro-1H-pyrrolizin-7a(5H)-ylmethoxy)-5a,6,7,8,9,10-hexahydro-5H-6,9-epiminoazepino[2′,1′:3,4][1,4]oxazepino[5,6,7-de]quinazolin-2-yl)-5-ethynyl-6-fluoronaphthalen-2-ol [4b′]	8.22 nM	5.6 nM	18.3 nM			
Oc1cc(Cl)c2c(c1)C1(CC2)CCc2c(nc(OC[C@@]34CCCN3C[C@H](F)C4)nc2N2CC3CCC(C2)N3)C1F (single isomer, unassigned) [Compound 8a, (1S or 1R,8'S or 8′R)-4′-((1R,5S)-3,8-Diazabicyclo[3.2.1]octan-3-yl)-4-chloro-8′-fluoro-2′-(((2R,7aS)-2-fluorotetrahydro-1H-pyrrolizin-7a(5H)-yl)methoxy)-2,3,5′,8′-tetrahydro-6′H-spiro[indene-1,7′-quinazolin]-6-ol dihydrochloride]	19.5 nM	61.2 nM	13.5 nM			
CCc1cccc2cc(O)cc(-c3c(F)c4c5c(nc(OC[C@@]67CCCN6C[C@H](F)C7)nc5c3F)N3CC5CCC(N5)C3CO4)c12 (single isomer, unassigned) [Compound 5a, (S or R)-4-((5aS,6S,9R)-1,3-Difluoro-13-(((2R,7aS)-2-fluorotetrahydro-1H-pyrrolizin-7a(5H)-yl)methoxy)-5a,6,7,8,9,10-hexahydro-5H-6,9-epiminoazepino[2′,1′:3,4][1,4]oxazepino[5,6,7-de]quinazolin-2-yl)-5-ethylnaphthalen-2-ol dihydrochloride]	5.81 nM	11.4 nM	14.5 nM	96%	−0.77%	−1.58%
Oc1cc(Cl)c2c(c1)C1(CC2)CCc2c(N3CC4CCC(C3)N4)nc(OC[C@@]34CCCN3C[C@H](F)C4)nc2C1(F)F (single isomer, unassigned) [Compound 9a, (S or R)-4′-((1R,5S)-3,8-Diazabicyclo[3.2.1]octan-3-yl)-4-chloro-8′,8′-difluoro-2′-(((2R,7aS)-2-fluorotetrahydro-1H-pyrrolizin-7a(5H)-yl)methoxy)-2,3,5′,8′-tetrahydro-6′H-spiro[indene-1,7′-quinazolin]-6-ol dihydrochloride]	46.8 nM	559 nM	15.2 nM			
Oc1cc(-c2cc3c4c(nc(OC[C@@]56CCCN5C[C@H](F)C6)nc4c2F)N2C[C@@H]4CC[C@@H](N4)[C@H]2CO3)c2ccccc2c1 [Compound 3, dihydrochloride]	12.3 nM	79.6 nM	11.9 nM			
